Where “and” joins values, the source holds several entries; their conditions need not be identical. Equal values may be shown once.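 The compound was tested at five concentrations on cells cultured in 96-well plates, with a 48-hour exposure period. GI50 marks 50% less growth. TGI denotes the concentration required for complete inhibition of growth.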
Experiments:
Assay in all cases: NCI-60 cell line screen, 48 h
[1] = tested on: CAKI-1 renal
[2] = tested on: CCRF-CEM leukemia
[3] = tested on: HCC-2998 colon
[4] = tested on: HL-60(TB) leukemia
[5] = tested on: HT29 colon
[6] = tested on: KM20L2 colon
[7] = tested on: LXFL 529 NSCLC
[8] = tested on: RPMI-8226 leukemia
[9] = tested on: UACC-62 melanoma
[10] = tested on: DU-145 prostate

Structure (SMILES) | GI50 [1] [µM] | TGI [1] | GI50 [2] | TGI [2] | GI50 [3] | TGI [3] | GI50 [4] | TGI [4] | GI50 [5] | TGI [5] | GI50 [6] | TGI [6] | GI50 [7] [µM] | TGI [7] [µM] | GI50 [8] | TGI [8] | GI50 [9] | TGI [9] | GI50 [10] | TGI [10]
COc1cc[c]([Sb]([Br])([CH]=C(C)C)([CH]=C(C)C)[CH]=C(C)C)cc1 | 30.7 | > 100 µM | 5.65 µM | > 100 µM | 6.53 µM | > 100 µM | 1.73 µM | 13.7 µM | 4.89 µM | > 100 µM | 5.06 µM | > 100 µM | 2.88 | 39.3 | 0.868 µM | 5.47 µM | 3.41 µM | > 100 µM | – | –
NC(=S)N/N=C1\C(=O)N(CCc2ccccc2)C(=O)C1C(=O)NCCc1ccccc1 (stereo unspecified) | – | > 100 µM | – | – | – | > 100 µM | – | – | – | > 100 µM | – | > 100 µM | – | > 100 | – | > 100 µM | – | > 100 µM | – | –
O=C(O)c1c([N+](=O)[O-])cc(C(F)(F)F)cc1[N+](=O)[O-] | – | > 100 µM | – | > 100 µM | – | – | – | > 100 µM | – | > 100 µM | – | > 100 µM | – | > 100 | – | > 100 µM | – | – | – | –
CCCCNC(=O)OCC(COc1ccccc1OC)OC(=O)NCCCC (stereo unspecified) | – | > 100 µM | – | > 100 µM | – | > 100 µM | – | > 100 µM | – | > 100 µM | – | > 100 µM | – | > 100 | – | > 100 µM | – | > 100 µM | – | –
COc1ccc(C(=O)Nc2ccc(S(=O)(=O)NCC(=O)O)cc2)cc1 | – | > 100 µM | – | > 100 µM | – | > 100 µM | – | > 100 µM | – | > 100 µM | – | > 100 µM | – | > 100 | – | > 100 µM | – | > 100 µM | – | –
S=c1nc[nH]c2nc[nH]c12 | – | > 100 µM and 436 µM and > 750 µM | 0.972 µM | > 100 µM and 310 µM | 2.93 µM and 11.7 µM | > 100 µM and 463 µM and > 750 µM | 3.11 µM and 3.31 µM | – | 22.5 µM | > 750 µM | – | 691 µM | – | > 720 | 1.18 µM and 10.3 µM | > 100 µM and 489 µM and 171 µM | – | > 100 µM and 512 µM and > 750 µM | 0.825 µM and 3.96 µM | > 750 µM
COc1ccc2nc3ccccc3c(NCCCCCN(CCCl)CCCl)c2c1 | – | – | – | 0.118 µM | – | 0.23 µM | – | 0.0881 µM | – | 2.84 µM | – | 1.02 µM | – | 0.81 | – | 0.206 µM | – | 1.8 µM | – | –
COC1=C(C)C(=O)C2=C(C1=O)C(CO)N1C(C#N)C3CC4C(C1C2N1CCOC41)N3C (stereo unspecified) | – | – | – | – | 0.00395 µM | – | 0.000183 µM | – | – | 0.423 µM and 0.0773 µM | 0.0261 µM | 0.83 µM and 0.104 µM | – | – | 0.0177 µM | – | – | – | 0.0438 µM and 0.362 µM and 0.133 µM | 14 µM
CN(C)CCNC(=O)c1cccc2cc([N+](=O)[O-])ccc12 | – | 16.4 µM | 0.719 µM and 0.141 µM | 6.07 µM and 0.939 µM | 1.54 µM and 0.213 µM | 3.74 µM and 0.986 µM | 0.608 µM and 0.175 µM | 3.02 µM and 0.541 µM | 0.681 µM and 0.189 µM | 4.96 µM and 1.07 µM | – | 0.722 µM | – | 1.83 | – | 2.29 µM and 0.705 µM | – | – | – | 17.1 µM
O=c1c2cc(Br)ccc2nc(-c2ccccc2)n1NCC1(O)OCC(O)C(O)C1O (stereo unspecified) | – | > 100 µM | – | > 100 µM | – | – | – | > 100 µM | – | > 100 µM | – | > 100 µM | – | > 100 | – | > 100 µM | – | > 100 µM | – | –
CSc1c(S(C)=O)[nH]c2cc(Br)cc(Br)c12 (stereo unspecified) | – | 74.3 µM | – | 58.5 µM | – | 34.7 µM | – | 52.3 µM | – | 72.1 µM | – | – | – | 48.8 | – | 57.7 µM | – | 39.3 µM | – | –
COc1ccc2[nH]c3c(C)c4cc[n+](C)cc4c(C)c3c2c1 | – | – | 0.706 µM and 1.92 µM | – | 2.41 µM and 1.02 µM | – | 8.31 µM and 9.67 µM | – | 2.52 µM and 1.97 µM | 60.2 µM [middle of 4 runs] | 1.68 µM and 1.35 µM | 34.2 µM [middle of 4 runs] | 0.383 | 3.41 | – | – | 1.28 µM and 7.39 µM | – | 2.1 µM and 0.44 µM and 0.691 µM | 37.7 µM and 5.13 µM
CN(C)C(=S)/N=c1\ssc(=S)n1-c1ccccc1 | – | 33.3 µM | – | > 100 µM | – | 46.3 µM | – | 44.4 µM | – | 37.5 µM | – | 33.2 µM | – | 25.1 | – | – | – | 30.6 µM | – | –
COc1ccccc1-c1ccc2nc(NC(=O)Nc3cc(C(F)(F)F)cc(C(F)(F)F)c3)sc2c1 | 2.33 | 6.35 µM | 2.43 µM | 15 µM | 2.65 µM | 11.1 µM | 2.01 µM | 4.53 µM | 2.15 µM | 9.21 µM | – | – | – | – | 1.63 µM | 5.76 µM | 1.56 µM | 3.26 µM | 4 µM | 14.9 µM
NCCn1ccc(NC(c2ccccc2)(c2ccccc2)c2ccccc2)nc1=O | – | – | – | – | – | 31.9 µM | – | 38.5 µM | – | 31.1 µM | – | 32.2 µM | – | 30.3 | – | 46.3 µM | – | – | – | –
CCCCCCCCCCCCC/C=C1\C[C@H](O)COC1=O | – | 32.9 µM | – | 36.6 µM | – | 37.2 µM | – | 39.9 µM | – | 30.6 µM | – | 31.7 µM | – | 29.8 | – | 41 µM | – | 26.8 µM | – | –

From PubChem BioAssay (NCI)
